The values below come from the supplement of paper PMC11208160.

The nature of this data set: recombinant barcode read abundance after kanamycin selection (control-corrected) (log10(CPM+1)); higher = more efficient recombination; sequences stand for … in AGTGCAGAGAAAATCGGCCAGTTTTCTCTGCCTGCAGTCCGCATGCCGT…ATTTATGCAGCGGACTGCCTTTCTCCCAAAGTGATAAACCGGACAGTATCATGGACCGGTTTTCCCGGTAATCCGTATTTGCAAGGTTGGTTTCACT; site = the 11-nt target. In outline: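 IS621 bridge RNA target-binding loops were paired with targets in a pooled library tested in E. coli. After co-electroporation with a donor plasmid, cells were plated in two replicates on chloramphenicol/ampicillin LB agar (control) and on chloramphenicol/ampicillin/kanamycin carrying 0.1 mM IPTG. Barcodes at recombinant junctions were counted as counts per million, averaged and control-corrected to give recombination efficiency. Values are log10(CPM+1).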
On to “GCGCGACCTTGGGTTCTAACCTGTTGCTTAC [GCGCGACCTAA_LTGcore_CT_RTGcore_GT] (site GCGCGACCTAA) (LTG core: CT, RTG core: GT)”, for which the “recombinant barcode read abundance (log10)” value was 0.23.

On to “GCGCGACCTTGGGTTCTAACCTGTTGCTTCC [GCGCGACCTAA_LTGcore_CT_RTGcore_GG] (site GCGCGACCTAA) (LTG core: CT, RTG core: GG)”, for which the “recombinant barcode read abundance (log10)” value was determined as 0.0108.

As for “GCGCGACCTTGGGTTCTAACCTGTTGCTTCT [GCGCGACCTAA_LTGcore_CT_RTGcore_AG] (site GCGCGACCTAA) (LTG core: CT, RTG core: AG)”, the “recombinant barcode read abundance (log10)” value worked out at 0.345.

In the case of “GCGCGACCTTGGGTTCTAACCTGTTGCTTGA [GCGCGACCTAA_LTGcore_CT_RTGcore_TC] (site GCGCGACCTAA) (LTG core: CT, RTG core: TC)”, the “recombinant barcode read abundance (log10)” value worked out at 0.0329.

Take “GCGCGACGCTGGGTTCTAACCTGTTGCTTGC [GCGCGACCTAA_LTGcore_GC_RTGcore_GC] (site GCGCGACCTAA) (LTG core: GC, RTG core: GC)”: the “recombinant barcode read abundance (log10)” value was found to be 0.0645.

For “GCGCGACGTTGGGTTCTAACCTGTTGCTTAC [GCGCGACCTAA_LTGcore_GT_RTGcore_GT] (site GCGCGACCTAA) (LTG core: GT, RTG core: GT)”, the “recombinant barcode read abundance (log10)” value was 0.0144.

In the case of “GCGCGACTATGGGTTCTAACCTGTTGCTTAG [GCGCGACCTAA_LTGcore_TA_RTGcore_CT] (site GCGCGACCTAA) (LTG core: TA, RTG core: CT)”, the “recombinant barcode read abundance (log10)” value worked out at 0.038.

For the sequence “GCGGGACACTGGGTTCTAACCTGTTGCCTGT [GCGGGACCTAG_LTGcore_AC_RTGcore_AC] (site GCGGGACCTAG) (LTG core: AC, RTG core: AC)”, the “recombinant barcode read abundance (log10)” value stood at 0.

With “GCGGGACAGTGGGTTCTAACCTGTTGCCTCT [GCGGGACCTAG_LTGcore_AG_RTGcore_AG] (site GCGGGACCTAG) (LTG core: AG, RTG core: AG)”, the “recombinant barcode read abundance (log10)” value was found to be 0.

With “GCGGGACCCTGGGTTCTAACCTGTTGCCTGG [GCGGGACCTAG_LTGcore_CC_RTGcore_CC] (site GCGGGACCTAG) (LTG core: CC, RTG core: CC)”, the “recombinant barcode read abundance (log10)” value came out at 1.52.

As to “GCGGGACGCTGGGTTCTAACCTGTTGCCTGC [GCGGGACCTAG_LTGcore_GC_RTGcore_GC] (site GCGGGACCTAG) (LTG core: GC, RTG core: GC)”, the “recombinant barcode read abundance (log10)” value came out at 0.0844.

As to “GCGGGACGGTGGGTTCTAACCTGTTGCCTCC [GCGGGACCTAG_LTGcore_GG_RTGcore_GG] (site GCGGGACCTAG) (LTG core: GG, RTG core: GG)”, the “recombinant barcode read abundance (log10)” value was found to be 0.182.

Consider “GGACACCAGTGGGTTCTAACCTGTTGCCTAG [GGACACCCTAG_LTGcore_AG_RTGcore_CT] (site GGACACCCTAG) (LTG core: AG, RTG core: CT)”, for which the “recombinant barcode read abundance (log10)” value stood at 0.143.

Take “GGACACCAGTGGGTTCTAACCTGTTGCCTCT [GGACACCCTAG_LTGcore_AG_RTGcore_AG] (site GGACACCCTAG) (LTG core: AG, RTG core: AG)”: the “recombinant barcode read abundance (log10)” value worked out at 0.0138.

“GGACACCCGTGGGTTCTAACCTGTTGCCTAG [GGACACCCTAG_LTGcore_CG_RTGcore_CT] (site GGACACCCTAG) (LTG core: CG, RTG core: CT)”: the “recombinant barcode read abundance (log10)” value came out at 1.2.

“GGACACCCTTGGGTTCTAACCTGTTGCCTAC [GGACACCCTAG_LTGcore_CT_RTGcore_GT] (site GGACACCCTAG) (LTG core: CT, RTG core: GT)”: the “recombinant barcode read abundance (log10)” value is 1.33.

Regarding “GGACACCCTTGGGTTCTAACCTGTTGCCTAG [GGACACCCTAG_LTGcore_CT_RTGcore_CT] (site GGACACCCTAG) (LTG core: CT, RTG core: CT)”, the “recombinant barcode read abundance (log10)” value is 2.43.

For “GGACACCCTTGGGTTCTAACCTGTTGCCTTC [GGACACCCTAG_LTGcore_CT_RTGcore_GA] (site GGACACCCTAG) (LTG core: CT, RTG core: GA)”, the “recombinant barcode read abundance (log10)” value amounted to 0.732.

Turning to “GGACACCCTTGGGTTCTAACCTGTTGCCTTG [GGACACCCTAG_LTGcore_CT_RTGcore_CA] (site GGACACCCTAG) (LTG core: CT, RTG core: CA)”, the “recombinant barcode read abundance (log10)” value came to 1.32.

With “GGACACCTCTGGGTTCTAACCTGTTGCCTAG [GGACACCCTAG_LTGcore_TC_RTGcore_CT] (site GGACACCCTAG) (LTG core: TC, RTG core: CT)”, the “recombinant barcode read abundance (log10)” value worked out at 0.117.

As to “GGCTCCCATTGGGTTCTAACCTGTTGCGGAT [GGCTCCCCTCC_LTGcore_AT_RTGcore_AT] (site GGCTCCCCTCC) (LTG core: AT, RTG core: AT)”, the “recombinant barcode read abundance (log10)” value was determined as 0.138.

In the case of “GGCTCCCCCTGGGTTCTAACCTGTTGCGGGG [GGCTCCCCTCC_LTGcore_CC_RTGcore_CC] (site GGCTCCCCTCC) (LTG core: CC, RTG core: CC)”, the “recombinant barcode read abundance (log10)” value came out at 0.0622.

Turning to “GGCTCCCCGTGGGTTCTAACCTGTTGCGGAG [GGCTCCCCTCC_LTGcore_CG_RTGcore_CT] (site GGCTCCCCTCC) (LTG core: CG, RTG core: CT)”, the “recombinant barcode read abundance (log10)” value was 0.116.

As for “GGCTCCCCGTGGGTTCTAACCTGTTGCGGCG [GGCTCCCCTCC_LTGcore_CG_RTGcore_CG] (site GGCTCCCCTCC) (LTG core: CG, RTG core: CG)”, the “recombinant barcode read abundance (log10)” value came out at 0.0989.

As for “GGCTCCCCTTGGGTTCTAACCTGTTGCGGAG [GGCTCCCCTCC_LTGcore_CT_RTGcore_CT] (site GGCTCCCCTCC) (LTG core: CT, RTG core: CT)”, the “recombinant barcode read abundance (log10)” value worked out at 0.248.

As to “GGCTCCCCTTGGGTTCTAACCTGTTGCGGCG [GGCTCCCCTCC_LTGcore_CT_RTGcore_CG] (site GGCTCCCCTCC) (LTG core: CT, RTG core: CG)”, the “recombinant barcode read abundance (log10)” value came to 0.0875.

Turning to “GGCTCCCCTTGGGTTCTAACCTGTTGCGGGG [GGCTCCCCTCC_LTGcore_CT_RTGcore_CC] (site GGCTCCCCTCC) (LTG core: CT, RTG core: CC)”, the “recombinant barcode read abundance (log10)” value stood at 0.0955.

As to “GGCTCCCCTTGGGTTCTAACCTGTTGCGGTT [GGCTCCCCTCC_LTGcore_CT_RTGcore_AA] (site GGCTCCCCTCC) (LTG core: CT, RTG core: AA)”, the “recombinant barcode read abundance (log10)” value was 0.285.

On to “GGCTCCCGCTGGGTTCTAACCTGTTGCGGGC [GGCTCCCCTCC_LTGcore_GC_RTGcore_GC] (site GGCTCCCCTCC) (LTG core: GC, RTG core: GC)”, for which the “recombinant barcode read abundance (log10)” value was 0.0637.

As for “GGCTCCCGTTGGGTTCTAACCTGTTGCGGAG [GGCTCCCCTCC_LTGcore_GT_RTGcore_CT] (site GGCTCCCCTCC) (LTG core: GT, RTG core: CT)”, the “recombinant barcode read abundance (log10)” value came to 0.546.

Regarding “GGCTCCCTGTGGGTTCTAACCTGTTGCGGCA [GGCTCCCCTCC_LTGcore_TG_RTGcore_TG] (site GGCTCCCCTCC) (LTG core: TG, RTG core: TG)”, the “recombinant barcode read abundance (log10)” value amounted to 0.234.

Take “GGGAGCCAATGGGTTCTAACCTGTTGCTGTT [GGGAGCCCTCA_LTGcore_AA_RTGcore_AA] (site GGGAGCCCTCA) (LTG core: AA, RTG core: AA)”: the “recombinant barcode read abundance (log10)” value came out at 0.427.

On to “GGGAGCCCATGGGTTCTAACCTGTTGCTGAG [GGGAGCCCTCA_LTGcore_CA_RTGcore_CT] (site GGGAGCCCTCA) (LTG core: CA, RTG core: CT)”, for which the “recombinant barcode read abundance (log10)” value amounted to 1.06.

In the case of “GGGAGCCCTTGGGTTCTAACCTGTTGCTGAA [GGGAGCCCTCA_LTGcore_CT_RTGcore_TT] (site GGGAGCCCTCA) (LTG core: CT, RTG core: TT)”, the “recombinant barcode read abundance (log10)” value came to 0.138.

For “GGGAGCCCTTGGGTTCTAACCTGTTGCTGAT [GGGAGCCCTCA_LTGcore_CT_RTGcore_AT] (site GGGAGCCCTCA) (LTG core: CT, RTG core: AT)”, the “recombinant barcode read abundance (log10)” value amounted to 0.599.

Regarding “GGGAGCCCTTGGGTTCTAACCTGTTGCTGCC [GGGAGCCCTCA_LTGcore_CT_RTGcore_GG] (site GGGAGCCCTCA) (LTG core: CT, RTG core: GG)”, the “recombinant barcode read abundance (log10)” value turned out to be 0.0726.

In the case of “GGGAGCCCTTGGGTTCTAACCTGTTGCTGTT [GGGAGCCCTCA_LTGcore_CT_RTGcore_AA] (site GGGAGCCCTCA) (LTG core: CT, RTG core: AA)”, the “recombinant barcode read abundance (log10)” value is 0.272.

With “GGGAGCCGCTGGGTTCTAACCTGTTGCTGAG [GGGAGCCCTCA_LTGcore_GC_RTGcore_CT] (site GGGAGCCCTCA) (LTG core: GC, RTG core: CT)”, the “recombinant barcode read abundance (log10)” value is 0.379.

Regarding “GGGAGCCGGTGGGTTCTAACCTGTTGCTGAG [GGGAGCCCTCA_LTGcore_GG_RTGcore_CT] (site GGGAGCCCTCA) (LTG core: GG, RTG core: CT)”, the “recombinant barcode read abundance (log10)” value came out at 0.212.

Take “GGGAGCCGGTGGGTTCTAACCTGTTGCTGCC [GGGAGCCCTCA_LTGcore_GG_RTGcore_GG] (site GGGAGCCCTCA) (LTG core: GG, RTG core: GG)”: the “recombinant barcode read abundance (log10)” value worked out at 0.0432.

In the case of “GGGCGGAAATGGGTTCTAACCTGTTGCGGTT [GGGCGGACTCC_LTGcore_AA_RTGcore_AA] (site GGGCGGACTCC) (LTG core: AA, RTG core: AA)”, the “recombinant barcode read abundance (log10)” value amounted to 0.428.

On to “GGGCGGAATTGGGTTCTAACCTGTTGCGGAT [GGGCGGACTCC_LTGcore_AT_RTGcore_AT] (site GGGCGGACTCC) (LTG core: AT, RTG core: AT)”, for which the “recombinant barcode read abundance (log10)” value was 0.0199.

In the case of “GGGCGGACATGGGTTCTAACCTGTTGCGGTG [GGGCGGACTCC_LTGcore_CA_RTGcore_CA] (site GGGCGGACTCC) (LTG core: CA, RTG core: CA)”, the “recombinant barcode read abundance (log10)” value was found to be 0.732.
